In patent US9629813B2, “Nanoparticle formulations with enhanced mucosal penetration” (The Johns Hopkins University, priority 2012, dated 2017):

How the values were obtained:
HSV-2 strain G = assay: HSV-2 infection mouse model (vaginal protection); format: in vivo; details: 10 ID50
Procedure: (§1) Female 6-8 week-old CF-1 mice were purchased from Harlan (Indianapolis, Ind.). Mice were housed in a reverse light cycle facility (12 h light/12 h dark), to enable selection of mice in a naturally cycling estrus state. The mouse vagina during the estrus phase of the estrous cycle is most similar to the human vagina. Barrier properties to nanoparticles in estrus phase mouse mucus closely mimic the barrier properties to nanoparticles in human CVM. Thus, mice in estrus phase, as determined visually by the appearance of the vaginal introitus, were used for all distribution and retention studies. Mice used for vaginal HSV-2 protection and susceptibility studies were given a subcutaneous flank injection of 2.5 mg Depo-Provera (Pharmacia & Upjohn Company, New York, N.Y.) in 100 μL phosphate-buffered saline (PBS) 7 days prior to experiments. This treatment is commonly used to increase susceptibility to vaginal HSV-2 infection. All experimental protocols were approved by the Johns Hopkins Animal Care and Use Committee.
Mice received 20 μl of 10 mg/ml acyclovir monophosphate dissolved in either PBS (isoosmolar) or ultrapure water (hypoosmolar) immediately before use. […] Mice were dosed either 1 min or 60 min prior to viral inoculum. Mice were then challenged with 10 μl of inoculum containing HSV-2 strain G (ATCC #VR-724, 2.8×10^7 TCID50 per ml). For protection studies, HSV-2 was diluted 10-fold with Bartel's medium to deliver 10 ID50, a dose that typically infects 85-90% of control mice. For osmotic-induced susceptibility tests, virus was diluted 10-fold with Bartel's medium and further diluted 10-fold in either Bartel's medium (isoosmolar) or deionized water (hypoosmolar) to the ID50, a dose that infects half of the mice. Mice were assessed for infection three days later after inoculation by culturing a PBS vaginal lavage on human foreskin fibroblasts (Diagnostic Hybrids, MRHF Lot #440318W). In this model, input (challenge) virus is no longer detectable in lavage fluid if it is collected more than 12 h after the challenge.
The Wilcoxon rank-sum test was used to compare data sets. This test is non-parametric, and more appropriate in situations where a Gaussian distribution cannot be assumed. For HSV-2 infection studies, statistical significance was determined using Fisher's exact test, two-tailed distribution.

[1] = Vaginal epithelial distribution of FITC-containing biodegradable MPP versus FITC in HEC gel after 24 h; format: in vivo, mouse; details: MPP in UP water, FITC in isoosmolar HEC gel
Procedure: Biodegradable MPP containing FITC intravaginally was administered in UP water. As a comparison, FITC in the standard isoosmolar placebo gel, hydroxyethylcellulose (HEC), was administered. After 24 h, the vaginal tissue was excised and flattened between two glass slides.

[2] = Drug distribution in the vagina (Doxorubicin surface coverage on flattened tissue); format: in vivo, mouse; details: for vaginal tissue area covered: non-ambulatory (supine for 1 h)
Procedure: as §1
Doxorubicin (NetQem, Durham, N.C.) was dissolved at 1 mg/ml concentration in either PBS (isoosmolar with respect to blood) or ultrapure water (hypoosmolar). For 1 liter of 1×PBS, 800 ml of distilled water; 8 g of NaCl; 0.2 g of KCl; 1.44 g of Na2HPO4; 0.24 g of KH2PO4: adjust the pH to 7.4 with HCl, add distilled water to a total volume of 1 liter.
Doxorubicin was vaginally administered both isoosmotically and hypoosmotically to mice in two different conditions. The “non-ambulatory” group was anesthetized with an intraperitoneal injection of Avertin working solution (prepared according to Johns Hopkins ACUC guidelines) and remained supine for 1 hr prior to tissue collection. […] The images were ‘thresholded’ to draw region of interest boundaries around the fluorescent signal, and then the area covered quantified using ImageJ software. An average percentage coverage was determined for each mouse, and these values were averaged over groups of n=5 mice.

[3] = Drug retention in the vagina (Doxorubicin fluorescence of whole cervicovaginal tract); format: in vivo, mouse; details: after 10 min supine; normalized to isoosmolar group
Procedure: Female 6-8 week-old CF-1 mice were purchased from Harlan (Indianapolis, Ind.). Mice were housed in a reverse light cycle facility (12 h light/12 h dark), to enable selection of mice in a naturally cycling estrus state. The mouse vagina during the estrus phase of the estrous cycle is most similar to the human vagina. Barrier properties to nanoparticles in estrus phase mouse mucus closely mimic the barrier properties to nanoparticles in human CVM. Thus, mice in estrus phase, as determined visually by the appearance of the vaginal introitus, were used for all distribution and retention studies. […]
Doxorubicin vas dissolved at a concentration 1 mg/ml in phosphate buffeted saline (“PBS”) (isoosmolar with respect to blood) or ultrapure water (hypoosmolar). […] Fluorescence images of the tissues were obtained using the Xenogen IVIS Spectrum imaging device (Caliper Life Sciences). To account for potential differences in Doxorubicin solution fluorescence, vials of both isoosmolar and hypoosmolar Doxorubicin solutions were included in the image. The ratio of the intensity of the two solutions was used to normalize the tissue fluorescence for each group. Quantification of fluorescent counts per unit area was calculated using the Xenogen Living Image 2.5 software. […]

acyclovir monophosphate [ACVp] gave a mice infected (HSV-2 strain G; 1% ACVp 1 min before virus, administered hypotonically) of 31%, a mice infected (HSV-2 strain G; 1% ACVp 1 min before virus, administered isotonically) of 49% and a mice infected (HSV-2 strain G; 1% ACVp 1 h before virus, administered hypotonically) of 73%. The mice infected (HSV-2 strain G; 1% ACVp 1 h before virus, administered isotonically) was 45%.
For FITC, the “epithelial distribution on flattened vaginal tissue” value [1] was “sparsely distributed”.
With COc1cccc2c1C(=O)c1c(O)c3c(c(O)c1C2=O)C[C@@](O)(C(=O)CO)C[C@@H]3O[C@H]1C[C@H](N)[C@H](O)[C@H](C)O1 [Doxorubicin] the “vaginal surface area covered” value ([2]; ambulatory for 10 mins, isoosmolar (isotonic) solution) was 25%, the “vaginal tissue area covered” value ([2]; hypoosmolar solution (ultrapure water)) was 88% and the “vaginal tissue area covered” value ([2]; isoosmolar solution (PBS)) was 15%. For the same compound, the “relative fluorescent signal in reproductive tract, hypoosmolar versus isoosmolar solution” value [3] was “half”.
